Among the data in the supplement of paper PMC6045584 are surviving fraction values, retold here.

Compound in one test: C[C@@H](Oc1cc(-c2cnn(C3CCNCC3)c2)cnc1N)c1c(Cl)ccc(F)c1Cl [CRIZOTINIB]
The test can be described thus: surviving fraction relative to DMSO-only wells; higher = less growth inhibition. Particulars: exposure time: 5 days. The method, boiled down: (§1)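 Each tumour cell line was screened three times, and only lines with replicate Pearson r >0.7 and median Z' >0.3 were kept. Cells in log phase were seeded at 250–500 per well in 384-well plates, left 24 hours, then exposed continuously for five days to inhibitors at 0.5, 1, 5, 10, 50, 100, 500 and 1000 nM. Viability was read as CellTiter-Glo luminescence, with surviving fraction normalised to the median of DMSO-only wells.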

Compound in a further test: Cc1nc(Nc2ncc(C(=O)Nc3c(C)cccc3Cl)s2)cc(N2CCN(CCO)CC2)n1 [DASATINIB]
Described as above. To be noted: exposure time: 5 days. The method in brief: as §1

± gives the standard deviation of the averaged measurements.

As to HS578T BREAST, the surviving fraction with CRIZOTINIB (0.5 nM) is 1.04 ± 0.16; with CRIZOTINIB (1 nM), 1.13 ± 0.17; with CRIZOTINIB (5 nM), 1.13 ± 0.11; with CRIZOTINIB (10 nM) it was 1.14 ± 0.18; with CRIZOTINIB (50 nM), 1.07 ± 0.25; with CRIZOTINIB (100 nM) it was 0.994 ± 0.14. In addition, the surviving fraction with CRIZOTINIB (500 nM) was determined as 0.833 ± 0.066; in the test with CRIZOTINIB (1000 nM), 0.722 ± 0.021; with DASATINIB (0.5 nM), 0.862 ± 0.13; with DASATINIB (1 nM), 0.829 ± 0.15; with DASATINIB (5 nM) it was 0.669 ± 0.051; with DASATINIB (10 nM), 0.593 ± 0.044. In addition, the surviving fraction with DASATINIB (50 nM) came to 0.343 ± 0.029; in the test with DASATINIB (100 nM) it was 0.252 ± 0.04; with DASATINIB (500 nM), 0.125 ± 0.02; in the test with DASATINIB (1000 nM), 0.126 ± 0.012.

As for HS57T BREAST, the surviving fraction in the test with CRIZOTINIB (0.5 nM) was 1 ± 0.02; with CRIZOTINIB (1 nM) it was 1.09 ± 0.056; with CRIZOTINIB (5 nM), 1.14 ± 0.026; in the test with CRIZOTINIB (10 nM), 1.07 ± 0.025; in the test with CRIZOTINIB (500 nM) it was 0.676 ± 0.011; with CRIZOTINIB (1000 nM), 0.56 ± 0.046. In addition, the surviving fraction in the test with DASATINIB (0.5 nM) came out at 0.852 ± 0.056; in the test with DASATINIB (1 nM), 0.814 ± 0.024; with DASATINIB (5 nM), 0.832 ± 0.033; in the test with DASATINIB (10 nM) it was 0.788 ± 0.076; with DASATINIB (50 nM), 0.423 ± 0.022; with DASATINIB (100 nM), 0.37 ± 0.029. Besides, the surviving fraction with DASATINIB (500 nM) came out at 0.17 ± 0.016; with DASATINIB (1000 nM), 0.142 ± 0.0095.

As to HMT3552 BREAST, the surviving fraction worked out at 1.01 ± 0.042 with CRIZOTINIB (0.5 nM); 1.05 ± 0.073 with CRIZOTINIB (1 nM); 1.04 ± 0.015 with CRIZOTINIB (5 nM); 1.06 ± 0.015 with CRIZOTINIB (10 nM); 1.07 ± 0.023 with CRIZOTINIB (50 nM); 1.18 ± 0.035 in the test with CRIZOTINIB (100 nM). In addition, the surviving fraction with CRIZOTINIB (500 nM) came to 0.597 ± 0.045; with CRIZOTINIB (1000 nM), 0.201 ± 0.012; with DASATINIB (0.5 nM), 0.913 ± 0.043; in the test with DASATINIB (1 nM), 0.848 ± 0.067; with DASATINIB (5 nM), 0.705 ± 0.013; with DASATINIB (10 nM), 0.612 ± 0.063. Moreover, the surviving fraction in the test with DASATINIB (50 nM) turned out to be 0.259 ± 0.0081; with DASATINIB (100 nM) it was 0.15 ± 0.017; with DASATINIB (500 nM), 0.105 ± 0.0076; with DASATINIB (1000 nM) it was 0.123 ± 0.021.

With HCC70 BREAST, the surviving fraction is 1.09 ± 0.06 with CRIZOTINIB (0.5 nM); 1.1 ± 0.13 in the test with CRIZOTINIB (1 nM); 1.16 ± 0.022 with CRIZOTINIB (5 nM); 1.18 ± 0.1 with CRIZOTINIB (50 nM); 1.07 ± 0.059 in the test with CRIZOTINIB (500 nM); 0.818 ± 0.12 in the test with CRIZOTINIB (1000 nM). The surviving fraction was found to be 1.03 ± 0.094 with DASATINIB (0.5 nM); 1.04 ± 0.027 in the test with DASATINIB (1 nM); 1.15 ± 0.1 with DASATINIB (5 nM); 0.996 ± 0.079 in the test with DASATINIB (10 nM); 0.902 ± 0.15 in the test with DASATINIB (50 nM); 0.655 ± 0.057 with DASATINIB (100 nM). Further, the surviving fraction with DASATINIB (500 nM) was 0.574 ± 0.14; with DASATINIB (1000 nM), 0.581 ± 0.16.

As for HCC38 BREAST, the surviving fraction stood at 1.27 ± 0.15 in the test with CRIZOTINIB (0.5 nM); 1.18 ± 0.06 with CRIZOTINIB (1 nM); 1.31 ± 0.069 with CRIZOTINIB (5 nM); 1.28 ± 0.041 with CRIZOTINIB (10 nM); 1.29 ± 0.13 with CRIZOTINIB (50 nM); 1.28 ± 0.13 with CRIZOTINIB (100 nM). The surviving fraction is 0.63 ± 0.09 in the test with CRIZOTINIB (1000 nM); 0.962 ± 0.17 in the test with DASATINIB (0.5 nM); 0.868 ± 0.087 with DASATINIB (1 nM); 0.697 ± 0.043 in the test with DASATINIB (5 nM); 0.896 ± 0.17 with DASATINIB (10 nM); 1.01 ± 0.18 in the test with DASATINIB (50 nM). Besides, the surviving fraction was found to be 0.911 ± 0.16 in the test with DASATINIB (100 nM), 0.664 ± 0.1 with DASATINIB (500 nM) and 0.583 ± 0.12 with DASATINIB (1000 nM).

G292 BONE: the surviving fraction came out at 1.02 ± 0.037 with CRIZOTINIB (0.5 nM); 1.04 ± 0.055 with CRIZOTINIB (1 nM); 1.07 ± 0.012 in the test with CRIZOTINIB (5 nM); 1.08 ± 0.038 with CRIZOTINIB (10 nM); 0.9452 ± 0.0094 with CRIZOTINIB (50 nM); 0.951 ± 0.033 with CRIZOTINIB (100 nM). The surviving fraction with CRIZOTINIB (500 nM) stood at 0.634 ± 0.025; in the test with CRIZOTINIB (1000 nM), 0.41 ± 0.016; with DASATINIB (0.5 nM) it was 0.94 ± 0.04; with DASATINIB (1 nM) it was 0.894 ± 0.036; with DASATINIB (5 nM) it was 0.811 ± 0.049; with DASATINIB (10 nM), 0.683 ± 0.032. In addition, the surviving fraction in the test with DASATINIB (50 nM) was 0.348 ± 0.013; with DASATINIB (100 nM) it was 0.269 ± 0.033; with DASATINIB (500 nM) it was 0.213 ± 0.018; with DASATINIB (1000 nM), 0.2077 ± 0.0011.

Regarding HMLE3 BREAST, the surviving fraction in the test with CRIZOTINIB (0.5 nM) was 1.07 ± 0.043; with CRIZOTINIB (5 nM) it was 1.18 ± 0.081; in the test with CRIZOTINIB (10 nM), 1.07 ± 0.089; with CRIZOTINIB (50 nM) it was 1.05 ± 0.054; in the test with CRIZOTINIB (100 nM), 1.04 ± 0.12; with CRIZOTINIB (500 nM), 0.828 ± 0.062. Moreover, the surviving fraction in the test with CRIZOTINIB (1000 nM) amounted to 0.649 ± 0.046; with DASATINIB (0.5 nM), 0.898 ± 0.042; with DASATINIB (1 nM), 0.856 ± 0.067; with DASATINIB (5 nM), 0.856 ± 0.02; in the test with DASATINIB (10 nM), 0.7 ± 0.013; with DASATINIB (50 nM), 0.776 ± 0.029. Besides, the surviving fraction with DASATINIB (100 nM) was found to be 0.716 ± 0.043; with DASATINIB (500 nM), 0.588 ± 0.023; with DASATINIB (1000 nM), 0.553 ± 0.033.
